Test results published in patent US11684676B2, “Site-specific antibody-drug conjugates by ADP-ribosyl cyclases” (University of Southern California, priority 2020, dated 2023).

Test system: CD38 C-fusion IgG
Assay: Inactivation of CD38 C-fusion IgG by 2′-Cl-araNAD+-N3
Type: biochemical, human
Details: CD38 C-fusion IgG 2 nM, NGD+ 100 μM
Description: The formation of cyclic GDP-ribose was monitored by a Synergy H1 plate reader (Biotek, VT) under the kinetic mode with excitation wavelength set at 300 nm and emission wavelength at 410 nm.

SMILES: [N-]=[N+]=NCCCNc1ncnc2c1ncn2[C@@H]1O[C@H](COP(=O)(O)OP(=O)([O-])OC[C@H]2O[C@@H]([n+]3cccc(C(N)=O)c3)[C@@H](Cl)[C@@H]2O)[C@@H](O)[C@H]1O [2′-Cl-araNAD^+-N3, 1-((2R,3S,4R,5R)-5-((((((((2R,3S,4R,5R)-5-(6-((3-azidopropyl)amino)-9H-purin-9-yl)-3,4-dihydroxytetrahydrofuran-2-yl)methoxy)(hydroxy)phosphoryl)oxy)oxidophosphoryl)oxy)methyl)-3-chloro-4-hydroxytetrahydrofuran-2-yl)-3-carbamoylpyridin-1-ium]
- kinact: 0.0039 ± 0.0007 s⁻¹
